This is an account of results in US20230295728A1, “METHODS FOR DIAGNOSING AND TREATING AUTISM” (CENTRE NATIONAL DE LA RECHERCHE SCIENTIFIQUE (CNRS), priority 2020, published 2023).

Structures are written as SMILES. Entries after “also recorded” stand apart in the source; their conditions may differ.

The subject of one data set is B6D2 and Balb c males. As for the experimental part: The control group received the same volume (0.1 ml) of 0.9% saline buffer. At 14 days post birth, all offspring (8-12 pups from each litter) were injected (intraperitoneally) with VPA at […] or with saline buffer as a control. […] The F1 to F2 generations were obtained following treatment with the 300 to 500 mg/kg VPA doses. The F1 generation derived from VPA-injected F0 fathers is referred to as VPA-F1, while that from saline-injected fathers is identified as the control. Adult VPA-F1 males were bred with normal females.
VPA is known to perturb brain formation during early development^22 and to induce characteristic traits of ASD pathology^23,24. […] We treated the animals after birth rather than treating pregnant females as in previous studies^23,24 to avoid the multiple effects on embryonic development generated via the mothers during pregnancy as well as the effects on germ cells. […] In contrast, the injection of pregnant females often leads to an unpredicted arrest of embryonic development and mortality of the mothers either during pregnancy or after the birth of their progenies.
The spermatogonial stem cells that will continuously divide and differentiate throughout the life of the male are present, leaving open the possibility that some changes in transcript levels may be transmitted to the next generation.

The subject of data set [1] is Balb c mice. Description: Glass marble burying test. In kind it is in vivo, mouse. As for the experimental part: According to the described protocols, newly filled bedding cages were prepared with 20 marbles spaced on the bedding surface. Mice were individually caged. After 30 minutes, each mouse was returned to its home cage, and the buried marbles were counted (data not shown). Marbles that were not buried were not included in the analysis.

For data set [2], the system named is Balb c mice. In words: Tail suspension test. In kind it is in vivo, mouse. How it is done: Adult mice (2 months old) (Balb c strain) weighing 25-27 g on the test day. The apparatus used for the tail test consisted of two filter covers each and enabled three mice to be tested simultaneously. Each mouse was suspended by the tail from a hook connected to the strain gauge, to which they were attached with adhesive tape with a length of 18 cm. The duration of each trial was 360 seconds. The tail suspension test was recorded using a SONY HDR-CX240E video recorder. […] An immobility posture indicates the abandonment of struggling and, thus, depression. Periods of agitation and immobility are reported (data not shown).

In data set [3] the test system is Balb c mice. Description: Novel object recognition test. In kind it is in vivo, mouse. The text has this:
The time spent with familiar versus novel objects highlighted a common characteristic of the test group versus the controls. Specifically, it indicated differences in the interest in and recognition of objects. NOR (novel object recognition) is a well-established test in a variety of animal models with multiple protocols. In general, it involves two trials of cognition evaluation based on the spontaneous exploratory conduct of a mouse to measure recognition memory. In the first trial, we used (first-day acquisition) animals that were exposed to two similar objects (small orange boxes) in a chamber for 5 minutes. During the second trial (second-day retention) mice were again exposed to two dissimilar objects for 5 minutes, including one familiar object from the first trial and one new object (blue box). Object recognition was measured (data not shown), according to the difference in the time spent with the familiar object versus the new object.

The test system of data set [4] is Balb c mice. Description: Open field and Morris water tests. The format is in vivo, mouse. As to conditions: 500 mg/kg VPA group (data not shown).
The test system of data set [5] is Balb c mice. In words: Social interaction test (three chambers). The format is in vivo, mouse. As for the experimental part: To determine whether these interactions varied between the groups of mice, they were filmed for 5 minutes. There are many different ways to follow social interaction. Here, we present the results in a simple way based on conditions in a cage separated into three sections. The mice being tested were placed in the center of the cage and were filmed to calculate the time that they spent close to the empty compartment or the compartment occupied by another mouse. The three chambers were separated by square doors in the two inner walls connecting to the center area. Briefly, the test mouse was introduced in the center to initiate habituation for 5 minutes while blocking access to the side compartments. The first test was conducted by placing an unfamiliar mouse inside an empty wire cage in one of the side chambers to measure the social interaction of the subject mouse without direct social contact. On the other side, there was an empty wire cage. Each test was performed for 10 minutes (data not shown), and the floor surfaces were wiped with 70% ethanol between trials. The accumulated time spent in each compartment and the sociability or social preference indices were measured to quantify the social behavior of the mice.

The test system of data set [6] is six-microRNAs (miR-19a-3p, miR-361-5p, miR-3613-3p, miR-150-5p, miR-126-3p, miR-499a-5p). In words: miRNA analysis of the mouse models (q-PCR of blood, sperm, hippocampus RNA). The format is in vivo. As to conditions: VPA-treated mice (500 mg/kg). How it is done: Routine qPCR for miR detection and validation^41 was performed with the miScript PCR control set (catalog number 218380; Qiagen, Germany). The miScript™ miRNA PCR Array Human Serum & Plasma 384HC (Cat No: 331223) was used in this study. The Human Serum & Plasma 384HC miScript miRNA PCR Array profiles the expression of 372 miRNAs) that are detectable in serum and plasma using the miScript PCR system. SNORD61, SNORD68, SNORD72, SNORD95, SNORD96A, RNU6-2, miRTC, miRTC, and PPC were used as controls. The data were normalized using the 2^−ΔΔct method.
Total RNA was prepared from mouse tissues (blood, hippocampus, sperm) according to published procedures^42. Sperm cells were isolated from the epididymis, and floating sperm were recovered by successive washing (PBS) and centrifugation at 3000 rpm. Briefly, RNAs were extracted from all tissues (hippocampus, blood and sperm cells) via a standard protocol. Qiazol Lysis Buffer (Cat. No: 79306; Qiagen, Texas, USA) was used in accordance with the manufacturer's instructions. The Qiazol-extracted aqueous phase was ethanol precipitated, followed by washing twice with 70% ethanol. To remove the remaining DNA, the PCR samples were treated with DNase according to the manufacturer's instructions.

As to `CCCC(CCC)C(=O)O` [VPA, valproic acid], the sudden mortality result in the data set with B6D2 and Balb c males (500 mg/kg i.p., males) is on record as “without sudden mortality”. The “mortality / lethality at high doses” value in the data set on B6D2 and Balb c males (600-700 mg/kg, one i.p. injection at 14 days post birth, both mouse lines) is listed as “dramatic lethality; also recorded: sudden dramatic mortality; also recorded: lethal”. Moreover, the “breeding behaviour, fertility, testes” value with B6D2 and Balb c males (mouse, in vivo, 500 mg/kg) is “a few males became aggressive toward females during breeding, showed reduced fertility and smaller testes”. Besides, the “marbles buried in 30 minutes” value in the data set with Balb c mice [1] (500 mg/kg VPA F1 generation) is reported as “the same behavior as in the founders, with significantly less activity”; in the data set with Balb c mice [1] (500 mg/kg, treated males) it was “markedly less interest in burying marbles”. Also, the “immobility / struggle-related behaviour” value in the data set on Balb c mice [2] (500 mg/kg, F0 treated males) is “a significant change that indicated abandonment and depression was observed”; in the data set on Balb c mice [2] (F1 generation of VPA-treated fathers, compared to F0), “the reverse effect was observed”. The “time spent with familiar versus novel objects” value is “Some effect was detectable” in the data set on Balb c mice [3] (400 mg/kg, only for familiar objects); “lost interest and spent the same amount of time with the two objects but spent less time overall with both objects” with Balb c mice [3] (500 mg/kg, treated males). Besides, the overall activity entry with Balb c mice [4] is “decrease in the overall activity as well by half”. For the same compound, in the data set on Balb c mice [5] (500 mg/kg VPA group), the “overall activity in social interaction tests” value is given as “decrease in overall activity”. Also, the “time spent close to chamber with mouse versus empty chamber” value in the data set with Balb c mice [5] (500 mg/kg, treated males) was “showed less interest and spent an even smaller amount of time close to the empty cage”. Also, the “expression of the six-microRNAs” value in data set [6] was “decreases not only in the blood but also in the sperm and hippocampus”.
